Measured values taken from US6602881B2, “Anti-inflammatory uses of manzamines” (priority 1999, dated 2003).

Columns and labels:
Type in all cases: cell-based
[1] = tested on: LPS activated BMΦ (rat microglia); assay: Assay for BMΦ thromboxane B2 (TXB2) generation (immunoassay), PMA-stimulated, LPS-activated BMΦ; details: PMA (1 μM)-stimulated TXB2 release from LPS (0.3 ng/ml, 17 h)-activated rat BMΦ, manzamine 20 min preincubation + 70 min
Description: (§1) Isolation and culture of rat BMΦ. Briefly to prepare primary BMΦ cultures, cerebral cortices from 1-2-day-old Sprague-Dawley rats (Harlan, Indianapolis, Ind.) were placed in cold DMEM+10% heat-inactivated FBS+120 U/ml P and 12 μg/ml S, meninges carefully removed, brain tissue minced and dissociated with trypsin-EDTA at 37° C. for 3-5 minutes. The mixed glial cell suspension was plated in either 75 or 162 cm^2 culture flasks with DMEM containing 10% heat-inactivated FBS+120 U/ml P and 12 μg/ml S and grown in a humidified 5% CO2 incubator at 37° C. On day 7 of culture, flasks were shaken (90 rpm, 20 min, 37° C.) and media exchanged. On day 14 and every 3-4 days thereafter, BMΦ were detached using an orbital shaker (200 rpm, 2 hours, 37° C., 5% CO2), then centrifuged (450×g, 25 min, 4° C.). The pellet containing BMΦ was resuspended gently with cold DMEM, cell number and viability assessed by trypan blue exclusion. Purified BMΦ obtained by our method averaged>than 95% viability. Microglia were characterized as previously described (Mayer et al., 1999, supra).
Assay for BMΦ thromboxane B2 (TXB2) generation. Following stimulation with PMA, TXB2 generation in the BMΦ culture supernatants was measured using immunoassays (Cayman Chemical, Ann Arbor, Mich.) as indicated by the manufacturer's protocol (Mayer, et al., 1999, supra).
(§2) To establish the effect of Manzamine A, B, C, D, E and F on BMΦ O2^−, TXB2, and LDH generation the following procedure was used:
(§3) (1) 2-5×10^5 BMΦ were seeded into each well of 24-well flat-bottom culture clusters.
(§4) (2) 1 ml of DMEM+10% heat-inactivated FBS+120 U/ml P and 12 μg/ml S were added.
(§5) (3) BMΦ were allowed to attach for 2 hours, at 37° C., 5% CO2, and monolayers then washed 3 times with 1 ml warm (37° C.) DMEM+10% heat-inactivated FBS+120 U/ml P and 12 μg/ml S were added.
(§6) (4) 1 ml of DMEM+10% heat-inactivated FBS+120 U/ml P and 12 μg/ml S were added.
(§7) (5) Then, LPS (0.3 ng/ml final concentration) was added to each well.
(§8) (6) BMΦ were then incubated for 17 hours in a humidified 5% CO2 incubator at 37° C.
(§9) (7) Thereafter, the media was removed from each tissue culture well and discarded.
(§10) (8) BMΦ monolayers were washed 3 times with 1 ml warm (37° C.) HBSS.
(§11) To study the effect of Manzamines A, B, C, D, E and F on PMA-stimulated release of O2^− and TXB2 from BMΦ activated with LPS as described in (A) we proceeded as follows.
(§12) (1) Add HBSS, Manzamines A, or B, or C, or D, or E, or F, DMSO and Triton X-100 1% to the tissue culture wells containing LPS-activated BMΦ, as shown in Table 1.
(§13) (2) Incubate the tissue culture plates for 20 minutes in a humidified 5% CO2 incubator at 37° C.
(§14) (3) Remove the tissue culture plates from the incubator and return to laminar flow hood.
(§15) (4) Incubate tissue culture plates for an additional 70 minutes in CO2 incubator at 37° C.
(§16) (6) Once (5) is completed use the same BMΦ supernates to determine both LDH and TXB2 as described above in Assay for BMΦ TXB2 generation and LDH assay.

[2] = tested on: LPS activated BMΦ (rat microglia); assay: Assay for BMΦ O2− generation (SOD-inhibitable reduction of ferricytochrome C), PMA-stimulated, LPS-activated BMΦ; details: PMA (1 μM)-stimulated O2− release from LPS (0.3 ng/ml, 17 h)-activated rat BMΦ, manzamine 20 min preincubation + 70 min
Description: as §1
Assay for BMΦ O2^− generation. BMΦ O2^− generation was determined by the superoxide dismutase(SOD)-inhibitable reduction of ferricytochrome C(FCC) (Mayer et al., 1999, supra). Briefly, spontaneous O2^− release from unstimulated BMΦ was measured in the presence of FCC (50 μM) and HBSS with or without SOD (700 units). To determine PMA-stimulated O2^− release, BMΦ containing wells received FCC, HBSS and PMA [1 μM] with or without SOD which inhibited>95% of FCC reduction. All experimental treatments were run in triplicate and in a final volume of 1 ml. Changes in absorbance of BMΦ supernatants were measured at 550 nm using a Beckman DU-650 Spectrophotometer. Differences in the amount of reduced FCC in the presence or absence of SOD were used to determine BMΦ O2^− generation by employing the molecular extinction coefficient of 21.0×10^3 M^−1 cm^−1.
as §2, §3, §4, §5, §6, §7, §8, §9, §10, §11, §12, §13, §14, §15
(5) When incubation is complete, aspirate BMΦ supernates from each well (1 ml), and place in a 1.5 ml microcuvette. Proceed to reach absorbance as indicated above in Assay for BMΦ O2^− generation.

[3] = target: LPS activated BMΦ (rat microglia); assay: LDH assay (lactate dehydrogenase release, BMΦ viability); details: LDH release (toxicity) from LPS-activated rat BMΦ, same supernates
Description: as §1
LDH assay. To assess BMΦ viability following incubation with vehicle (DMSO) or the manzamines, lactate dehydrogenase (LDH) release was determined spectrophotometrically as previously described (Mayer et al., 1999, supra).
as §2, §3, §4, §5, §6, §7, §8, §9, §10, §11, §12, §13, §14, §15, §16

Structure (SMILES) | IC50 [1] [µM] | IC50 [2] [µM] | IC50 [3] [µM] | IC50 ([1]; Microglia) [µM] | IC50 ([2]; Microglia) [µM] | IC50 ([3]; Microglia) [µM]
O[C@]12C=C(c3nccc4c3[nH]c3ccccc34)[C@@H]3CCN(CCCC/C=C\CC1)C[C@@]31C[C@@H]3/C=C\CCCCN3[C@H]12 [Manzamine A, manzamine A] | < 0.1 | 0.1 | > 30 |  |  | 
C1=C\CC[C@]23CN4CCCC/C=C\CC[C@@]5(OC5[C@@H](c5nccc6c5[nH]c5ccccc56)[C@@H]2CC4)[C@@H]3NCCCC/1 (some centres unmarked) [Manzamine B, manzamine B] |  |  |  | ~3 | ~5 | ~3
C1=C\CCCCN(CCc2nccc3c2[nH]c2ccccc23)CCCC/1 [Manzamine C, manzamine C] |  |  |  | ~5 | ~5 | ~5
O[C@]12C=C(C3NCCc4c3[nH]c3ccccc43)[C@@H]3CCN(CCCC/C=C\CC1)C[C@@]31CC3/C=C\CCCCN3[C@H]12 (some centres unmarked) [Manzamine D, manzamine D] |  |  |  | ~0.3 | ~0.5 | ~0.5
O=C1CCCN2C(CC1)C[C@]13CN4CCCC/C=C\CC[C@](O)(C=C(c5nccc6c5[nH]c5ccccc56)[C@@H]1CC4)[C@H]23 (some centres unmarked) [Manzamine E, manzamine E] |  |  |  |  | > 10 | > 10
O=C1CCCN2[C@@H](CC1)C[C@]13CN4CCCC/C=C\CC[C@](O)(C=C(c5nccc6c5[nH]c5c(O)cccc56)C1CC4)[C@H]23 (some centres unmarked) [Manzamine F, manzamine F] |  |  |  | > 10 | > 10 | > 10
